System: MV-4-11 cells
Experiment: Gene expression microarray analysis (Affymetrix PrimeView) and GSEA
Format: cell-based, human
Design: RFU PODN (11730768_x_at) / Fold change /veh PODN (11730768_x_at) / RFU LINC00158 (11744669_a_at) / Fold change /veh LINC00158 (11744669_a_at) / RFU DUSP10 (11751237_a_at) / Fold change /veh DUSP10 (11751237_a_at) / RFU ID3 (11757404_x_at) / Fold change /veh ID3 (11757404_x_at) / RFU PLEKHG5 (11737974_s_at) / Fold change /veh PLEKHG5 (11737974_s_at) / RFU LRRC4B (11730491_at) / Fold change /veh LRRC4B (11730491_at) / RFU GIMAP4 (11747438_a_at) / Fold change /veh GIMAP4 (11747438_a_at) / RFU KRT8 (11758183_x_at) / Fold change /veh KRT8 (11758183_x_at) / RFU CNN1 (11734310_a_at) / Fold change /veh CNN1 (11734310_a_at) / RFU VPS37D (11726825_at) / Fold change /veh VPS37D (11726825_at) / RFU C10orf10 (11716522_x_at) / Fold change /veh C10orf10 (11716522_x_at) / RFU KIR2DL2 /// KIR2DL4 /// KIR2DL5A /// KIR2DL5B /// KIR2DS1 /// KIR2DS2 /// KIR2DS3 /// KIR2DS4 /// KIR3DL3 /// KIR3DL3 /// KIR3DS1 (11738374_at) / Fold change /veh KIR2DL2 /// KIR2DL4 /// KIR2DL5A /// KIR2DL5B /// KIR2DS1 /// KIR2DS2 /// KIR2DS3 /// KIR2DS4 /// KIR3DL3 /// KIR3DL3 /// KIR3DS1 (11738374_at) / RFU C1QL1 (11718748_at) / Fold change /veh C1QL1 (11718748_at) / RFU TMPRSS4 (11747572_a_at) / Fold change /veh TMPRSS4 (11747572_a_at) / RFU HAMP (11756126_x_at) / Fold change /veh HAMP (11756126_x_at) / RFU RNFT2 (11725882_a_at) / Fold change /veh RNFT2 (11725882_a_at) / RFU NR4A2 (11747474_a_at) / Fold change /veh NR4A2 (11747474_a_at) / RFU ABCC12 (11746883_a_at) / Fold change /veh ABCC12 (11746883_a_at) / RFU TMEM136 (11760407_x_at) / Fold change /veh TMEM136 (11760407_x_at) / RFU CLDN22 /// WWC2 (11732394_at) / Fold change /veh CLDN22 /// WWC2 (11732394_at) / RFU HLA-DPB1 (11760878_x_at) / Fold change /veh HLA-DPB1 (11760878_x_at) / RFU SPINT1 (11716480_a_at) / Fold change /veh SPINT1 (11716480_a_at) / RFU GAP43 (11754022_s_at) / Fold change /veh GAP43 (11754022_s_at) / RFU A4GNT (11735810_at) / Fold change /veh A4GNT (11735810_at) / RFU PRB3 (11715151_x_at) / Fold change /veh PRB3 (11715151_x_at) / RFU TUBB4B (11761932_at) / Fold change /veh TUBB4B (11761932_at) / RFU CAPN14 (11732068_a_at) / Fold change /veh CAPN14 (11732068_a_at) / RFU TMCC2 (11721928_a_at) / Fold change /veh TMCC2 (11721928_a_at) / RFU IRGQ (11745062_a_at) / Fold change /veh IRGQ (11745062_a_at) / RFU FAM174B (11720279_a_at) / Fold change /veh FAM174B (11720279_a_at) / RFU TMPRSS4 (11748680_a_at) / Fold change /veh TMPRSS4 (11748680_a_at) / RFU FAM212B (11763350_a_at) / Fold change /veh FAM212B (11763350_a_at) / RFU PLEKHG5 (11743358_a_at) / Fold change /veh PLEKHG5 (11743358_a_at) / RFU ZSCAN30 (11745921_a_at) / Fold change /veh ZSCAN30 (11745921_a_at) / RFU CMKLR1 (11741424_a_at) / Fold change /veh CMKLR1 (11741424_a_at) / RFU LOC101060620 /// MAPK8IP1 (11723275_at) / Fold change /veh LOC101060620 /// MAPK8IP1 (11723275_at) / RFU SPTSSB (11747773_x_at) / Fold change /veh SPTSSB (11747773_x_at) / RFU PRSS12 (11739890_at) / Fold change /veh PRSS12 (11739890_at) / RFU BIN1 (11741810_x_at) / Fold change /veh BIN1 (11741810_x_at) / RFU WNT11 (11732464_a_at) / Fold change /veh WNT11 (11732464_a_at) / RFU C10orf10 (11716521_a_at) / Fold change /veh C10orf10 (11716521_a_at) / RFU C5orf56 (11738089_at) / Fold change /veh C5orf56 (11738089_at) / RFU CYB561 (11721691_x_at) / Fold change /veh CYB561 (11721691_x_at) / RFU ANKRD19P (11752326_a_at) / Fold change /veh ANKRD19P (11752326_a_at) / RFU OR2T12 /// OR2T33 /// OR2T8 (11738714_s_at) / Fold change /veh OR2T12 /// OR2T33 /// OR2T8 (11738714_s_at) / RFU VCAN (11748164_a_at) / Fold change /veh VCAN (11748164_a_at) / RFU JSRP1 (11732532_at) / Fold change /veh JSRP1 (11732532_at) / RFU KRTAP10-11 (11738290_x_at) / Fold change /veh KRTAP10-11 (11738290_x_at) / RFU MYO3A (11730013_a_at) / Fold change /veh MYO3A (11730013_a_at) / RFU EBF3 (11725865_a_at) / Fold change /veh EBF3 (11725865_a_at) / RFU CAMK2N1 (11719241_x_at) / Fold change /veh CAMK2N1 (11719241_x_at) / RFU C5orf56 (11738088_a_at) / Fold change /veh C5orf56 (11738088_a_at) / RFU OLFML3 (11715873_a_at) / Fold change /veh OLFML3 (11715873_a_at) / RFU LOC100653217 /// NTM (11731650_a_at) / Fold change /veh LOC100653217 /// NTM (11731650_a_at) / RFU MAPK11 (11762145_a_at) / Fold change /veh MAPK11 (11762145_a_at) / RFU FIZ1 (11724087_x_at) / Fold change /veh FIZ1 (11724087_x_at) / RFU OASL (11726364_x_at) / Fold change /veh OASL (11726364_x_at) / RFU SOX15 (11748057_x_at) / Fold change /veh SOX15 (11748057_x_at) / RFU CD79A (11719716_a_at) / Fold change /veh CD79A (11719716_a_at) / RFU HIST1H1D (11736915_at) / Fold change /veh HIST1H1D (11736915_at) / RFU CASKIN2 (11723855_a_at) / Fold change /veh CASKIN2 (11723855_a_at) / RFU LOC730098 (11760151_x_at) / Fold change /veh LOC730098 (11760151_x_at) / RFU OR4N2 (11742367_at) / Fold change /veh OR4N2 (11742367_at) / RFU PRRT2 (11749266_a_at) / Fold change /veh PRRT2 (11749266_a_at) / RFU SNX32 (11753110_a_at) / Fold change /veh SNX32 (11753110_a_at) / RFU CDHR5 (11726645_a_at) / Fold change /veh CDHR5 (11726645_a_at) / RFU RCAN1 (11760418_a_at) / Fold change /veh RCAN1 (11760418_a_at) / RFU FAM167A (11723789_a_at) / Fold change /veh FAM167A (11723789_a_at) / RFU FAM26E (11764081_at) / Fold change /veh FAM26E (11764081_at) / RFU ISYNA1 (11749810_s_at) / Fold change /veh ISYNA1 (11749810_s_at) / RFU ACY1 (11761880_at) / Fold change /veh ACY1 (11761880_at) / RFU 11764098_at / Fold change /veh 11764098_at / RFU SAMD14 (11745864_x_at) / Fold change /veh SAMD14 (11745864_x_at) / RFU NPB (11741838_a_at) / Fold change /veh NPB (11741838_a_at) / RFU TMPRSS6 (11731388_a_at) / Fold change /veh TMPRSS6 (11731388_a_at) / RFU KRTAP10-2 (11738614_at) / Fold change /veh KRTAP10-2 (11738614_at) / RFU ARHGAP8 /// PRR5-ARHGAP8 (11727945_x_at) / Fold change /veh ARHGAP8 /// PRR5-ARHGAP8 (11727945_x_at) / RFU KRTAP5-7 /// NADSYN1 (11734609_at) / Fold change /veh KRTAP5-7 /// NADSYN1 (11734609_at) / RFU RASL12 (11751679_a_at) / Fold change /veh RASL12 (11751679_a_at) / RFU CDKN2B (11736163_a_at) / Fold change /veh CDKN2B (11736163_a_at) / RFU PRF1 (11729649_at) / Fold change /veh PRF1 (11729649_at) / RFU, ZNF638 /// ZNF638-IT1 / Fold change vs veh, ZNF638 /// ZNF638-IT1 / RFU, PANK3 / Fold change vs veh, PANK3 / RFU, SH3YL1 / Fold change vs veh, SH3YL1 / RFU, ZEB2 / Fold change vs veh, ZEB2 / RFU, NRIP1 / Fold change vs veh, NRIP1 / RFU, PTTG1IP / Fold change vs veh, PTTG1IP / RFU, CAPN2 / Fold change vs veh, CAPN2 / RFU, MED14 / Fold change vs veh, MED14 / RFU, SNORA58 / Fold change vs veh, SNORA58 / RFU, C1orf63 / Fold change vs veh, C1orf63 / RFU, LRRFIP1 / Fold change vs veh, LRRFIP1 / RFU, NDUFAF7 / Fold change vs veh, NDUFAF7 / RFU, SLC12A2 / Fold change vs veh, SLC12A2 / RFU, IBTK / Fold change vs veh, IBTK / RFU, ESF1 / Fold change vs veh, ESF1 / Fold change vs veh, TMEM50B / RFU, TAOK1 / Fold change vs veh, TAOK1 / RFU, ACBD3 / Fold change vs veh, ACBD3 / RFU, TMA16 / Fold change vs veh, TMA16 / RFU, RWDD3 / Fold change vs veh, RWDD3 / RFU, BCAT1 / Fold change vs veh, BCAT1 / RFU, EDEM3 / Fold change vs veh, EDEM3 / RFU, TMEM33 / Fold change vs veh, TMEM33 / RFU, WDR75 / Fold change vs veh, WDR75 / RFU, AHCTF1 / Fold change vs veh, AHCTF1 / RFU, TFRC / Fold change vs veh, TFRC / RFU, ZDHHC17 / Fold change vs veh, ZDHHC17 / RFU, NOM1 / Fold change vs veh, NOM1 / RFU, ARL8B / Fold change vs veh, ARL8B / RFU, ZBTB11 / Fold change vs veh, ZBTB11 / RFU, TAMM41 / Fold change vs veh, TAMM41 / RFU, KIAA1704 /// LOC100996395 / Fold change vs veh, KIAA1704 /// LOC100996395 / RFU, ING1 / Fold change vs veh, ING1 / RFU, TRMT61B / Fold change vs veh, TRMT61B / RFU, FUBP3 / Fold change vs veh, FUBP3 / RFU, TP53 / Fold change vs veh, TP53 / RFU, TNKS2 / Fold change vs veh, TNKS2 / RFU, ZFP14 / Fold change vs veh, ZFP14 / RFU, ACTR2 / Fold change vs veh, ACTR2 / RFU, PPP3R1 / Fold change vs veh, PPP3R1 / RFU, PIK3R1 / Fold change vs veh, PIK3R1 / RFU, HNRNPA1 / Fold change vs veh, HNRNPA1 / RFU, RNF170 / Fold change vs veh, RNF170 / RFU, ZNF28 / Fold change vs veh, ZNF28 / RFU, RNGTT / Fold change vs veh, RNGTT / RFU, OGT / Fold change vs veh, OGT / RFU, BRD1 / Fold change vs veh, BRD1 / RFU, MARS / Fold change vs veh, MARS / RFU, ZNF655 / Fold change vs veh, ZNF655 / RFU, FAHD1 / Fold change vs veh, FAHD1 / RFU, BDP1 / Fold change vs veh, BDP1 / RFU, LRRCC1 / Fold change vs veh, LRRCC1 / RFU, ARID1A / Fold change vs veh, ARID1A / RFU, ZNF146 / Fold change vs veh, ZNF146 / RFU, ZNF330 / Fold change vs veh, ZNF330 / RFU, GPN3 / Fold change vs veh, GPN3 / RFU, C9orf123 / Fold change vs veh, C9orf123 / RFU, N4BP2L2 / Fold change vs veh, N4BP2L2 / RFU, ARFIP1 / Fold change vs veh, ARFIP1 / RFU, FAM179B / Fold change vs veh, FAM179B / RFU, BCL10 / Fold change vs veh, BCL10 / RFU, UHRF1BP1L / Fold change vs veh, UHRF1BP1L / RFU, BET1 / Fold change vs veh, BET1 / RFU, CNOT2 / Fold change vs veh, CNOT2 / RFU, ZNF268 / Fold change vs veh, ZNF268 / Fold change vs veh, ZNF507 / RFU, DGCR2 / Fold change vs veh, DGCR2 / RFU, WDSUB1 / Fold change vs veh, WDSUB1 / Fold change vs veh, HSP90B1 /// MIR3652 / RFU, ADSS / Fold change vs veh, ADSS / RFU, GK / Fold change vs veh, GK / RFU, ZNF148 / Fold change vs veh, ZNF148 / RFU, TAF9 / Fold change vs veh, TAF9 / RFU, SLC1A5 / Fold change vs veh, SLC1A5 / RFU, SLMO2 / Fold change vs veh, SLMO2 / RFU, ABCC4 / Fold change vs veh, ABCC4 / RFU, LOC101060439 /// RAP1B / Fold change vs veh, LOC101060439 /// RAP1B / RFU, RFX7 / Fold change vs veh, RFX7 / RFU, GTPBP10 / Fold change vs veh, GTPBP10 / RFU, CNEP1R1 / Fold change vs veh, CNEP1R1 / RFU, BIVM-ERCC5 /// ERCC5 / Fold change vs veh, BIVM-ERCC5 /// ERCC5 / RFU, ILF3 / Fold change vs veh, ILF3 / RFU 11762660_at / Fold change /veh 11762660_at / RFU VCAN (11757783_s_at) / Fold change /veh VCAN (11757783_s_at) / RFU DDX43 (11728927_at) / Fold change /veh DDX43 (11728927_at) / RFU KRT8 (11758188_x_at) / Fold change /veh KRT8 (11758188_x_at) / RFU NKD1 (11759106_at) / Fold change /veh NKD1 (11759106_at) / RFU SRD5A1 (11742802_a_at) / Fold change /veh SRD5A1 (11742802_a_at) / RFU TPSAB1 /// TPSB2 (11721975_s_at) / Fold change /veh TPSAB1 /// TPSB2 (11721975_s_at) / RFU GSTM3 (11746129_a_at) / Fold change /veh GSTM3 (11746129_a_at) / RFU IL23R (11737362_x_at) / Fold change /veh IL23R (11737362_x_at) / RFU TMEM51 (11727254_a_at) / Fold change /veh TMEM51 (11727254_a_at) / RFU PIWIL2 (11732686_x_at) / Fold change /veh PIWIL2 (11732686_x_at) / RFU ORM1 (11744905_x_at) / Fold change /veh ORM1 (11744905_x_at) / RFU CCDC152 (11743942_at) / Fold change /veh CCDC152 (11743942_at) / RFU ECM1 (11717891_a_at) / Fold change /veh ECM1 (11717891_a_at) / RFU IL23R (11748794_a_at) / Fold change /veh IL23R (11748794_a_at) / RFU TNFAIP8L3 (11732012_x_at) / Fold change /veh TNFAIP8L3 (11732012_x_at) / RFU MBOAT4 (11741988_at) / Fold change /veh MBOAT4 (11741988_at) / RFU 11764193_at / Fold change /veh 11764193_at / RFU TMEM53 (11763286_at) / Fold change /veh TMEM53 (11763286_at) / RFU MAGEB2 (11727129_at) / Fold change /veh MAGEB2 (11727129_at) / RFU TMEM200A (11744735_a_at) / Fold change /veh TMEM200A (11744735_a_at) / RFU CCDC152 (11751479_a_at) / Fold change /veh CCDC152 (11751479_a_at) / RFU FAM211A (11726209_a_at) / Fold change /veh FAM211A (11726209_a_at) / RFU RGS16 (11746705_a_at) / Fold change /veh RGS16 (11746705_a_at) / RFU VCAN (11755009_s_at) / Fold change /veh VCAN (11755009_s_at) / RFU RHOB (11743442_s_at) / Fold change /veh RHOB (11743442_s_at) / RFU RGS16 (11720943_a_at) / Fold change /veh RGS16 (11720943_a_at) / RFU RGS16 (11720944_at) / Fold change /veh RGS16 (11720944_at) / RFU, VPS4B / Fold change vs veh, VPS4B / RFU, CREB1 / Fold change vs veh, CREB1 / RFU, DNAJC13 / Fold change vs veh, DNAJC13 / RFU, GNAQ / Fold change vs veh, GNAQ / RFU, CDK5R1 / Fold change vs veh, CDK5R1 / RFU, ZRANB3 / Fold change vs veh, ZRANB3 / RFU, CUL4A / Fold change vs veh, CUL4A / RFU, CCNY / Fold change vs veh, CCNY / RFU, UFL1 / Fold change vs veh, UFL1 / RFU, COG3 / Fold change vs veh, COG3 / RFU, DIAPH2 / Fold change vs veh, DIAPH2 / RFU, SKA2 / Fold change vs veh, SKA2 / RFU, AFF3 / Fold change vs veh, AFF3 / RFU, LMF1 / Fold change vs veh, LMF1 / RFU, IPO11 / Fold change vs veh, IPO11 / RFU, DFFB / Fold change vs veh, DFFB / RFU, FOXP1 / Fold change vs veh, FOXP1 / RFU, CARD8 / Fold change vs veh, CARD8 / RFU, STRN3 / Fold change vs veh, STRN3 / RFU, ADK / Fold change vs veh, ADK / RFU, RASSF2 / Fold change vs veh, RASSF2 / RFU, WIPF1 / Fold change vs veh, WIPF1 / RFU, LARP1B / Fold change vs veh, LARP1B / RFU, RASA1 / Fold change vs veh, RASA1 / RFU, RB1 / Fold change vs veh, RB1 / RFU, PPFIA1 / Fold change vs veh, PPFIA1 / RFU, MAT2A / Fold change vs veh, MAT2A / RFU, CCT5 / Fold change vs veh, CCT5 / RFU, WDR92 / Fold change vs veh, WDR92 / RFU, CUX1 / Fold change vs veh, CUX1 / RFU, TTC7A / Fold change vs veh, TTC7A / RFU, TMEM135 / Fold change vs veh, TMEM135 / RFU, DEPTOR / Fold change vs veh, DEPTOR / RFU, CPM / Fold change vs veh, CPM / RFU, DNAJB6 / Fold change vs veh, DNAJB6 / RFU, CACNA2D3 / Fold change vs veh, CACNA2D3 / RFU, DTX4 / Fold change vs veh, DTX4 / RFU, TFCP2 / Fold change vs veh, TFCP2 / RFU, GMCL1 /// GMCL1P1 / Fold change vs veh, GMCL1 /// GMCL1P1 / RFU, AEBP2 / Fold change vs veh, AEBP2 / RFU, SNHG1 /// SNORD22 /// SNORD25 /// SNORD26 /// SNORD27 /// SNORD28 /// SNORD29 /// SNORD31 / Fold change vs veh, SNHG1 /// SNORD22 /// SNORD25 /// SNORD26 /// SNORD27 /// SNORD28 /// SNORD29 /// SNORD31 / Fold change (Aza/veh), C12orf56 (ProbeSet 11735607_a_at) / Fold change (ACY-1035/veh), C12orf56 (ProbeSet 11735607_a_at) / Fold change (Aza/veh), FGFR1OP (ProbeSet 11751329_s_at) / Fold change (ACY-1035/veh), FGFR1OP (ProbeSet 11751329_s_at) / Fold change (Aza/veh), VPS36 (ProbeSet 11739960_a_at) / Fold change (ACY-1035/veh), VPS36 (ProbeSet 11739960_a_at) / RFU SYPL1 (11715823_x_at) / Fold change /veh SYPL1 (11715823_x_at) / RFU IGFBP7 (11715501_s_at) / Fold change /veh IGFBP7 (11715501_s_at) / RFU REEP3 (11722064_at) / Fold change /veh REEP3 (11722064_at) / RFU IGLL1 (11728026_x_at) / Fold change /veh IGLL1 (11728026_x_at): dose or concentration left out as unconfirmed
Settings: ProbeSet 11718701_a_at; LIST B

Nc1ncn([C@@H]2O[C@H](CO)[C@@H](O)[C@H]2O)c(=O)n1 [azacitidine]
RFU, ARFIP1: 68.44 RFU

— paper PMC5218480 (PLoS ONE, 2017)
